Laboratory results: PubChem BioAssay (NCI)
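Assay format: 96-well plates, 48-hour exposure. At the GI50, growth is halved. At the TGI there is no net growth.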

Assays:
Assay in all cases: NCI-60 cell line screen, 48 h
A498 renal = system: A498 renal
ACHN renal = system: ACHN renal
BT-549 breast = system: BT-549 breast
HOP-92 NSCLC = system: HOP-92 NSCLC
HS 578T breast = system: HS 578T breast
MCF7 breast = system: MCF7 breast
NCI-H522 lung = system: NCI-H522 lung
OVCAR-8 ovarian = system: OVCAR-8 ovarian
RXF 393 renal = system: RXF 393 renal
SF-268 CNS = system: SF-268 CNS
SK-MEL-5 melanoma = system: SK-MEL-5 melanoma
SNB-75 CNS = system: SNB-75 CNS
TK-10 renal = system: TK-10 renal
UO-31 renal = system: UO-31 renal
HL-60(TB) leukemia = system: HL-60(TB) leukemia

C=CCc1ccccc1CC1(OCC)OC(=O)c2ccccc21 (configuration not stated)
TGI (A498 renal): > 100 µM
TGI (ACHN renal): > 100 µM
TGI (BT-549 breast): > 100 µM
TGI (HOP-92 NSCLC): > 100 µM
TGI (HS 578T breast): > 100 µM
TGI (MCF7 breast): > 100 µM
TGI (NCI-H522 lung): > 100 µM
TGI (OVCAR-8 ovarian): > 100 µM
TGI (RXF 393 renal): > 100 µM
TGI (SF-268 CNS): > 100 µM
TGI (SK-MEL-5 melanoma): > 100 µM
TGI (SNB-75 CNS): 53.1 µM
TGI (TK-10 renal): > 100 µM
TGI (UO-31 renal): > 100 µM

Cc1ccc(/C=C2\CN(C)CC3C2=NN(c2ccccc2)C3c2ccc(C)cc2)cc1 (configuration not stated)
TGI (A498 renal): > 100 µM
TGI (ACHN renal): > 100 µM
TGI (BT-549 breast): > 100 µM
TGI (HOP-92 NSCLC): > 100 µM
TGI (HS 578T breast): > 100 µM
TGI (MCF7 breast): > 100 µM
TGI (NCI-H522 lung): > 100 µM
TGI (OVCAR-8 ovarian): > 100 µM
TGI (RXF 393 renal): > 100 µM
TGI (SF-268 CNS): > 100 µM
TGI (SK-MEL-5 melanoma): > 100 µM
TGI (TK-10 renal): > 100 µM
TGI (UO-31 renal): > 100 µM

CC(=O)c1cccc(Nc2nc3ccc(Cl)cc3c3[nH]c4ccccc4c23)c1
GI50 (A498 renal): 2.15 µM
TGI (A498 renal): 7.26 µM
TGI (ACHN renal): 40.6 µM
TGI (BT-549 breast): > 100 µM
GI50 (HL-60(TB) leukemia): > 100 µM
TGI (HL-60(TB) leukemia): > 100 µM
TGI (HOP-92 NSCLC): 13.4 µM
TGI (HS 578T breast): 66.4 µM
TGI (MCF7 breast): > 21.9 µM
TGI (NCI-H522 lung): 16.4 µM
TGI (OVCAR-8 ovarian): 32.7 µM
TGI (SF-268 CNS): 36.9 µM
TGI (SK-MEL-5 melanoma): 17 µM
GI50 (SNB-75 CNS): 2.04 µM
TGI (SNB-75 CNS): 8.16 µM
TGI (TK-10 renal): 25.8 µM
TGI (UO-31 renal): 41.9 µM

Cc1c(Cl)c(S(N)(=O)=O)cc2c1NC=NS2(=O)=O
TGI (A498 renal): > 100 µM
TGI (ACHN renal): > 100 µM
TGI (BT-549 breast): > 100 µM
TGI (HOP-92 NSCLC): > 100 µM
TGI (HS 578T breast): > 100 µM
TGI (MCF7 breast): > 100 µM
TGI (NCI-H522 lung): > 100 µM
TGI (OVCAR-8 ovarian): > 100 µM
TGI (RXF 393 renal): > 100 µM
TGI (SF-268 CNS): > 100 µM
TGI (SK-MEL-5 melanoma): > 100 µM
TGI (SNB-75 CNS): > 100 µM
TGI (TK-10 renal): > 100 µM
TGI (UO-31 renal): > 100 µM

COc1ccc2c(c1)-c1[nH]c3ccc(OC)cc3c1CC2
TGI (ACHN renal): 36.5 µM
TGI (BT-549 breast): 32.9 µM
TGI (HOP-92 NSCLC): 36.2 µM
TGI (HS 578T breast): 28 µM
TGI (MCF7 breast): 89.7 µM
TGI (NCI-H522 lung): 17.6 µM
TGI (OVCAR-8 ovarian): 27.3 µM
TGI (SF-268 CNS): 28.1 µM
TGI (SK-MEL-5 melanoma): 30.9 µM
TGI (SNB-75 CNS): 26.9 µM
TGI (TK-10 renal): 31.5 µM
TGI (UO-31 renal): 31.4 µM

CC(C)(C)OC(=O)N1CCC2(C)CC(=O)CC=C12 (configuration not stated)
TGI (ACHN renal): > 100 µM
TGI (BT-549 breast): > 100 µM
TGI (HL-60(TB) leukemia): > 100 µM
TGI (HOP-92 NSCLC): > 100 µM
TGI (HS 578T breast): > 100 µM
TGI (MCF7 breast): > 100 µM
TGI (NCI-H522 lung): > 100 µM
TGI (OVCAR-8 ovarian): > 100 µM
TGI (RXF 393 renal): > 100 µM
TGI (SF-268 CNS): > 100 µM
TGI (SK-MEL-5 melanoma): > 100 µM
TGI (SNB-75 CNS): > 100 µM
TGI (TK-10 renal): > 100 µM
TGI (UO-31 renal): > 100 µM

COc1ccc(NC(=O)/C(=N/NC(N)=S)C2C(=O)NC(=S)NC2=O)c(OC)c1
TGI (A498 renal): > 100 µM
TGI (ACHN renal): > 100 µM
TGI (BT-549 breast): > 100 µM
TGI (HL-60(TB) leukemia): > 100 µM
TGI (HOP-92 NSCLC): > 100 µM
TGI (HS 578T breast): > 100 µM
TGI (MCF7 breast): > 100 µM
TGI (NCI-H522 lung): > 100 µM
TGI (OVCAR-8 ovarian): > 100 µM
TGI (SF-268 CNS): > 100 µM
TGI (SK-MEL-5 melanoma): > 100 µM
TGI (SNB-75 CNS): > 100 µM
TGI (TK-10 renal): > 100 µM
TGI (UO-31 renal): > 100 µM

c1ccc2c(c1)cc1c3[nH]c4ccccc4c3ccn21
TGI (ACHN renal): > 10 µM
TGI (BT-549 breast): > 10 µM
TGI (HL-60(TB) leukemia): > 10 µM
TGI (HOP-92 NSCLC): > 10 µM
TGI (HS 578T breast): > 10 µM
TGI (MCF7 breast): > 10 µM
TGI (NCI-H522 lung): > 10 µM
TGI (OVCAR-8 ovarian): > 10 µM
TGI (RXF 393 renal): > 10 µM
TGI (SF-268 CNS): > 10 µM
TGI (SK-MEL-5 melanoma): > 10 µM
TGI (SNB-75 CNS): > 10 µM
TGI (TK-10 renal): > 10 µM
TGI (UO-31 renal): > 10 µM

CC(C)=c1sc(=C(C)C)c2c1=NC(C)(C)N=2
TGI (A498 renal): > 100 µM
TGI (ACHN renal): > 100 µM
TGI (BT-549 breast): > 100 µM
TGI (HL-60(TB) leukemia): > 100 µM
TGI (HS 578T breast): > 100 µM
TGI (MCF7 breast): > 100 µM
TGI (NCI-H522 lung): > 100 µM
TGI (OVCAR-8 ovarian): > 100 µM
TGI (RXF 393 renal): > 100 µM
TGI (SF-268 CNS): > 100 µM
TGI (SK-MEL-5 melanoma): > 100 µM
TGI (TK-10 renal): > 100 µM

COc1cc([C@H]2CC(=O)C[C@H](c3cc(OC)c(OC)c(OC)c3)C23C(=O)c2ccccc2C3=O)cc(OC)c1OC
TGI (ACHN renal): > 100 µM
TGI (BT-549 breast): > 100 µM
TGI (HOP-92 NSCLC): > 100 µM
TGI (HS 578T breast): > 100 µM
TGI (MCF7 breast): > 100 µM
TGI (NCI-H522 lung): 95.1 µM
TGI (OVCAR-8 ovarian): > 100 µM
TGI (RXF 393 renal): 88.7 µM
TGI (SF-268 CNS): > 100 µM
TGI (SK-MEL-5 melanoma): > 100 µM
TGI (TK-10 renal): > 100 µM
TGI (UO-31 renal): > 100 µM

S=C1CSc2c(ccc3ccccc23)N1
TGI (ACHN renal): > 100 µM
TGI (BT-549 breast): > 100 µM
TGI (HL-60(TB) leukemia): > 100 µM
TGI (HS 578T breast): > 100 µM
TGI (MCF7 breast): > 100 µM
TGI (NCI-H522 lung): > 100 µM
TGI (OVCAR-8 ovarian): > 100 µM
TGI (RXF 393 renal): > 100 µM
TGI (SF-268 CNS): > 100 µM
TGI (SK-MEL-5 melanoma): > 100 µM
TGI (SNB-75 CNS): > 100 µM
TGI (TK-10 renal): > 100 µM
TGI (UO-31 renal): > 100 µM

O=c1n(-c2ccccc2)c(=O)n2n1C1Cc3ccccc3C12 (configuration not stated)
TGI (A498 renal): > 100 µM
TGI (ACHN renal): > 100 µM
TGI (BT-549 breast): > 100 µM
TGI (HL-60(TB) leukemia): > 100 µM
TGI (HOP-92 NSCLC): > 100 µM
TGI (HS 578T breast): > 100 µM
TGI (MCF7 breast): > 100 µM
TGI (OVCAR-8 ovarian): > 100 µM
TGI (SF-268 CNS): > 100 µM
TGI (SK-MEL-5 melanoma): > 100 µM
TGI (SNB-75 CNS): > 100 µM
TGI (TK-10 renal): > 100 µM
TGI (UO-31 renal): > 100 µM
